This note sets out measurements from ChEMBL document CHEMBL3758152, “11-Hydroxylation of Protoberberine by the Novel Berberine-Utilizing Aerobic Bacterium Sphingobium sp. Strain BD3100” (2015).

Assay [1] has as its system Staphylococcus aureus. Briefly: Antibacterial activity against Staphylococcus aureus H209P at 250 nmol/disk after 12 hrs by paper disk method. Format: functional, organism-based.
Assay [2] concerns Staphylococcus aureus. Briefly: Antibacterial activity against Staphylococcus aureus H209P at 125 nmol/disk after 12 hrs by paper disk method. The format is functional.

Active and inactive are the calls of the source. The rule behind the calls is not given here.

For the compound `COc1cc2c(cc1OC)-c1cc3cc(O)c(OC)c(OC)c3c[n+]1CC2`, the result in the assay on Staphylococcus aureus [1] was inactive.
`COc1ccc2cc3[n+](cc2c1OC)CCc1cc2c(cc1-3)OCO2` [BERBERINE]: the “diameter of the inhibition zone (DIZ)” value in the assay with Staphylococcus aureus [2] worked out at 12 mm.
On to `COc1c(O)cc2cc3[n+](cc2c1OC)CCc1cc(O)c(O)cc1-3`, for which, in the assay on Staphylococcus aureus [1], the outcome was inactive.
For `COc1c(O)cc2cc3[n+](cc2c1OC)CCc1cc2c(cc1-3)OCO2`, the outcome in the assay with Staphylococcus aureus [1] was inactive.
